Patent US7671085B2, “Non-steroidal farnesoid X receptor modulators and methods for the use thereof” (The Salk Institute for Biological Studies, priority 2002, dated 2010)
“Also recorded” adds a separate entry of the source.

What was measured:
mouse FXR and human RXR = target: T1, mouse FXR and human RXR (Mus musculus, UniProt Q60641); assay: CV-1 transient transfection reporter gene assay, TK minimal promoter with ECRE or ER-8 FXRE; type: cell-based; conditions: CV-1 cells; for concentration at which maximal activity is achieved: ECRE and ER-8 reporters; for activation of ECRE FXRE reporter: six copies of ECRE, TK minimal promoter; for activation of ER-8 FXRE reporter: two copies of ER-8, TK minimal promoter
T1 construct: expressed in transfected cells; host or cells: CV-1 cells
T1 sequence (Q60641 1-488): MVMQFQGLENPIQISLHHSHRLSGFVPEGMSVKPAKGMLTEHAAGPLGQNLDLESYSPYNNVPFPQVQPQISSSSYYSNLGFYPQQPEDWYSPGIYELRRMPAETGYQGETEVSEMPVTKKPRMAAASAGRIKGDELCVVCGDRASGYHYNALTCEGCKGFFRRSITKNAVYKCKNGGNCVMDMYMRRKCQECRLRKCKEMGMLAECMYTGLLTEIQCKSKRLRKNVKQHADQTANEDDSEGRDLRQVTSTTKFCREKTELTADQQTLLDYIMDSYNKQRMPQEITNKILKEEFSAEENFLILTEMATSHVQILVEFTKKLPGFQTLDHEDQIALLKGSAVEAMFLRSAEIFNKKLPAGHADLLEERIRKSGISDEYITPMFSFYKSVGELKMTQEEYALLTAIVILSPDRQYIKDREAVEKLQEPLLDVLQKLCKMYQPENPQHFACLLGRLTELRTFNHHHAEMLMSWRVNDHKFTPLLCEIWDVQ
T1 sequence (P19793 1-462 partner): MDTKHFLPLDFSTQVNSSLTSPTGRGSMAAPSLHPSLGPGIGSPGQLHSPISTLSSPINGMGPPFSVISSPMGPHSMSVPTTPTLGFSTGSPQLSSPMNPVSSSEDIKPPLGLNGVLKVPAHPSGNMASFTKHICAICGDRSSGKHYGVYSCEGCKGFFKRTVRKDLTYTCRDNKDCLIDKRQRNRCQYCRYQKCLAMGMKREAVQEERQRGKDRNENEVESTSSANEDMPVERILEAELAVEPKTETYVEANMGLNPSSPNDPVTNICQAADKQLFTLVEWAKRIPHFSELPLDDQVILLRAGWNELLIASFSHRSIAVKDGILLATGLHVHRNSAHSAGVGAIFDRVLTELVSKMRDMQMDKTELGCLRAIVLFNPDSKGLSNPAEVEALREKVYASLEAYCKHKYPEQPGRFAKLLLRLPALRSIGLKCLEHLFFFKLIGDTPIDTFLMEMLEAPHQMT
Procedure: The ability of these compounds to activate the receptor in a number of different cell-based reporter gene assays was then determined. […] CV-1 cells were transiently transfected with an expression plasmid for mouse FXR and human RXR with a thymidine kinase (TK) minimal promoter reporter vector containing either no copies or six copies of the ecdysone response element (ECRE), a well-characterized FXR response element (FXRE). In addition, two copies of the recently identified FXRE everted repeat separated by 8 nucleotides (ER-8) was also studied (see, for example, Laffitte et al. (2000). Identification of the DNA binding specificity and potential target genes for the farnesoid X-activated receptor. J Biol Chem. 275(14), 10638-47; Kast et al. (2002). Regulation of multidrug resistance-associated protein 2 (ABCC2) by the nuclear receptors pregnane X receptor, farnesoid X-activated receptor, and constitutive androstane receptor. J Biol Chem. 277(4), 2908-15).

FXR = target: T2, FXR (Homo sapiens, UniProt Q96RI1); assay: cell-based FXR transcription assay, FXR responsive promoter linked to luciferase reporter; conditions: for RE^a: cell-based FXR reporter assay, footnote a not given; for FXR activation, in words: cell-based reporter assay, SAR discussion
T2 construct: using a full length FXR on a natural response element; expressed in transfected cells
T2 sequence (Q96RI1 1-486): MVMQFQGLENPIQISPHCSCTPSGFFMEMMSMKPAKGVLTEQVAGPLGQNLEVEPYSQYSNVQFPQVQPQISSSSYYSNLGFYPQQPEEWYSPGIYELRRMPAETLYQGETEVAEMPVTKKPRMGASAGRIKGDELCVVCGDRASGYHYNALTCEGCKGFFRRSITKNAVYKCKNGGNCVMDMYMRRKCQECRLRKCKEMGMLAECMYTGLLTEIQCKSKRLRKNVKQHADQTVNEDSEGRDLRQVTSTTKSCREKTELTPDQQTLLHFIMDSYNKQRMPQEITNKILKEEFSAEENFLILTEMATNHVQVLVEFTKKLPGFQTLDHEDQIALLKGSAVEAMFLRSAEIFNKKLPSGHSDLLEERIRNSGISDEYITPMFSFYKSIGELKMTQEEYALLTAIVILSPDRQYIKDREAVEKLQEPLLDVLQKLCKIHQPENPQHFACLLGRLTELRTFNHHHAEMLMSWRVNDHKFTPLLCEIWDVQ
Method in brief: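 Cells co-transfected with full-length FXR and a luciferase reporter driven by a natural response element on a minimal promoter. Compound exposure ≈10 μM for 18 h before washing and luciferase read-out, in 384-well format, with CDCA as reference activator. EC50 derived from transcriptional activity.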

COC(=O)C=Cc1cccc(N(Cc2ccc(C=Cc3ccccc3)cc2)C(=O)C2CCCCC2)c1 [Compound 121]
concentration at which maximal activity is achieved (mouse FXR and human RXR): 1 µM
activation of ECRE FXRE reporter (mouse FXR and human RXR): 100 fold
activation of ER-8 FXRE reporter (mouse FXR and human RXR): 4 fold
RE^a (FXR): 1.55
FXR activation, in words (FXR): excellent activity; also recorded: among the most active

COC(=O)/C=C/c1cccc(N(Cc2ccc(-c3ccc4c(c3)OCO4)cc2)C(=O)C2CCCCC2)c1 [Compound 244]
concentration at which maximal activity is achieved (mouse FXR and human RXR): 1 µM
activation of ECRE FXRE reporter (mouse FXR and human RXR): 100 fold
activation of ER-8 FXRE reporter (mouse FXR and human RXR): 4 fold
RE^a (FXR): 1.90
FXR activation, in words (FXR): excellent activity

COC(=O)/C=C/c1cccc(N(Cc2ccc(-c3ccc(N(C)C)cc3)cc2)C(=O)C2CCCCC2)c1 [Compound 259]
concentration at which maximal activity is achieved (mouse FXR and human RXR): 1 µM
activation of ECRE FXRE reporter (mouse FXR and human RXR): 100 fold
activation of ER-8 FXRE reporter (mouse FXR and human RXR): 4 fold
RE^a (FXR): 1.72
FXR activation, in words (FXR): excellent activity
